According to US20230114107A1, “COMBINATION ANTI-CANCER THERAPIES WITH INDUCERS OF IRON-DEPENDENT CELLULAR DISASSEMBLY” (Flagship Pioneering Innovations V, Inc., priority 2019, published 2023):
Entries after “also recorded” stand apart in the source; their conditions may differ.

Key:
BT-474 Clone 5 cells = assay: CellTiter-Glo 2.0 viability of trastuzumab-resistant breast cancer cells; format: cell-based, human; details: graded concentrations, 72 hours; vs non-resistant parental cell line; FIG. 16C
Procedure: (§1) The effects of the ferroptosis inducer RSL3 on cancer cell lines with acquired resistance to standard of care therapeutics was assessed in vitro. Human melanoma cell lines with acquired resistance to BRAF inhibitors (A375-DR or A375-VR) were generated by propagating parental A375 cells in increasing concentrations of dabrafenib or vemurafenib (10 nM-100 μM) over 8 weeks. These resistant melanoma cell lines were further maintained in growth medium containing 5 μM dabrafenib or vemurafenib. BT-474 Clone 5, a human breast cancer cell line that is resistant to trastuzumab, was purchased from American Type Culture Collection (ATCC). 5,000 A375-DR, A375-VR, or BT-474 clone 5 cells were plated per well in flat-bottom 96 well plates and incubated overnight. Cells were then dosed with graded concentrations of RSL3 for 72 hours, and cellular viability was assessed using the CellTiter-Glo 2.0 Cell Viability Assay. The experiments were run in triplicate.

[1] = system: Caki-1 renal cell carcinoma cells; assay: Viability of Caki-1 renal cell carcinoma cells after treatment; format: cell-based; details: 24 hours
A375-DR cells = assay: CellTiter-Glo 2.0 viability of dabrafenib-resistant melanoma cells; format: cell-based, human; details: graded concentrations, 72 hours; vs non-resistant parental cell line; FIG. 16A
Procedure: as §1

[2] = system: Jurkat T cell leukemia cells; assay: Viability of Jurkat T cell leukemia cells after treatment; format: cell-based; details: various doses, 24 hours; FIG. 5A
A375-VR cells = assay: CellTiter-Glo 2.0 viability of vemurafenib-resistant melanoma cells; format: cell-based, human; details: graded concentrations, 72 hours; vs non-resistant parental cell line; FIG. 16B
Procedure: as §1

[3] = system: A20 B-cell leukemia cells; assay: Viability of A20 B-cell leukemia / lymphoma cells after treatment; format: cell-based; details: 24 hours
[4] = system: IRF reporter in THP1-Dual cells; assay: IRF reporter activity in THP1-Dual monocytes co-cultured with treated A20 cells; format: cell-based, human; details: A20 cells treated 24 hours, co-culture 24 hours; vs DMSO; FIG. 6C
Procedure: A20 B-cell leukemia cells were treated with either control (DMSO) or various doses of RSL3, for 24 hours prior to co-culture with THP1-Dual cells for an additional 24 hours. RSL3 was purchased from Selleckchem (Houston, Tex.) and dissolved in DMSO. Subsequently, the THP1 supernatants were assessed for NFKB or IRF reporter activity. A20 cells were acquired from ATCC and THP1-Dual cells acquired from InvivoGen (San Diego, Calif.). Both cell types were cultured in 96-well plates for the duration of the assay. 50,000 A20 cells were plated 24 hours prior to dosing with RSL3, with a final DMSO concentration of 0.5%. 24 hours post-treatment, THP1-Dual cells (25,000 cells/well) were added to the A20 cells. 24 hours later, 30 μl of supernatant was mixed with either 200 μl QuantiBlue (InvivoGen, San Diego, Calif.) or 50 μl QuantiLuc and absorbance or luminescence was recorded on a Molecular Devices plate reader.

[5] = system: NFKB reporter in THP1-Dual cells; assay: NFKB reporter activity in THP1-Dual monocytes co-cultured with treated Jurkat cells; format: cell-based, human; details: Jurkat cells treated 24 hours, co-culture 24 hours; vs DMSO; FIG. 5B
Procedure: (§2) Jurkat T cell leukemia cells were treated with either control (DMSO) or various doses of RSL3, for 24 hours prior to co-culture with THP1-Dual cells for an additional 24 hours. RSL3 was purchased from Selleckchem (Houston, Tex.) and dissolved in DMSO. Subsequently, the THP1 supernatants were assessed for NFKB or IRF reporter activity.
(§3) Jurkat cells were acquired from ATCC and THP1-Dual cells acquired from InvivoGen (San Diego, Calif.). Both cell types were cultured in 96-well plates for the duration of the assay. 100,000 Jurkat cells were plated 24 hours prior to dosing with RSL3, with a final DMSO concentration of 0.5%. 24 hours post-treatment, THP1-Dual cells (25,000 cells/well) were added to the Jurkat cells. 24 hours later, 30 μl of supernatant was mixed with either 200 μl QuantiBlue (InvivoGen, San Diego, Calif.) or 50 μl QuantiLuc and absorbance or luminescence was recorded on a Molecular Devices plate reader.

[6] = system: NFKB reporter in THP1-Dual cells; assay: NFKB reporter activity in THP1-Dual monocytes co-cultured with treated A20 cells; format: cell-based, human
Procedure: as §2, with “A20 B-cell” for “Jurkat T cell”
as §3, with “A20” for “Jurkat”, “50,000 A20” for “100,000 Jurkat”
A20 lymphoma cells were treated with various doses (e.g. 0.002, 0.005, 0.014, 0.041, 0.123, 0.370, 1.111, 3.333 and 10 μM) of a GPX4 inhibitor (RSL3, ML162 or ML210) in the presence or absence of 1 μM Ferrostatin-1 for 24 hours. ML162 was purchased from Cayman Chemical Company Inc and resuspended in DMSO. ML210 was purchased from Sigma-Aldrich and resuspended in DMSO. A20 lymphoma cells were also treated with DMSO as a negative control. After treatment with DMSO or a GPX4 inhibitor for 24 hours, the A20 lymphoma cells were co-cultured with THP1-Dual cells for an additional 24 hours. Subsequently, the THP1 supernatant was assessed for NFKB reporter activity. A20 cells were acquired from ATCC and THP1-Dual cells were acquired from InvivoGen (San Diego, Calif.). Both cell types were cultured in 96-well plates for the duration of the assay.

**Q.** What does the source list for `COC(=O)c1ccc([C@H]2c3[nH]c4ccccc4c3C[C@H](C(=O)OC)N2C(=O)CCl)cc1` [RSL3]?
**A.** sensitivity of BT-474 clone 5 cells to RSL3-induced ferroptosis (cellular viability) (BT-474 Clone 5 cells): sensitive to RSL3-induced ferroptosis; also recorded: more sensitive to RSL3-induced ferroptosis than the corresponding non-resistant parental cell line; viability of Caki-1 renal carcinoma cells, dose dependence ([1]; GPX4 inhibitor various doses, FIG. 13A, 14A): decreased viability of the cells in a dose dependent manner; viability of Caki-1 cells ([1]; various doses, FIG. 3A, 4A): negatively affected the viability; sensitivity of A375-DR cells to RSL3-induced ferroptosis (cellular viability) (A375-DR cells): sensitive to RSL3-induced ferroptosis; also recorded: more sensitive to RSL3-induced ferroptosis than the corresponding non-resistant parental cell line; viability of Jurkat T cell leukemia cells [2]: negatively affected the viability; sensitivity of A375-VR cells to RSL3-induced ferroptosis (cellular viability) (A375-VR cells): sensitive to RSL3-induced ferroptosis; also recorded: more sensitive to RSL3-induced ferroptosis than the corresponding non-resistant parental cell line; viability of A20 lymphoma cells, dose dependence ([3]; GPX4 inhibitor 0.002-10 μM, FIG. 10A, 11A, 12A): decreased viability of the cells in a dose dependent manner; viability of A20 B cell leukemia cells ([3]; various doses, FIG. 6A): negatively affected the viability; IRF signaling in THP1 monocytes [4]: elicited; NFKB signaling in THP1 monocytes [5]: elicited NFKB signaling in THP1 monocytes; NFKB signaling in THP1 monocytes ([6]; A20 cells treated 24 hours, co-culture 24 hours, vs DMSO, FIG. 6B): elicited; NFKB activity in THP1 cells, dose dependence ([6]; A20 lymphoma cells treated with GPX4 inhibitor, FIG. 10B, 11B, 12B): increased NFKB activity in THP1 cells in a dose dependent manner
